This note sets out measurements from patent US10995073B2 (CANCER RESEARCH TECHNOLOGY LIMITED, priority 2014, dated 2021).

The experiment concerns the target Human Full Length PARG (Homo sapiens (Human), UniProt Q86W56). The experiment can be described thus: PARG assay (in vitro enzyme, TR-FRET). To be noted: PARG biochemical activity; read-out: PARG_EC50_ENZYME. As for the experimental part:
PARG In vitro assays were conducted in a total volume of 15 ul in a standard 384 well format. 5 ul of Human Full Length PARG (Produced internally by Astra Zeneca), used at a final reaction concentration of […], was added to 5 ul of Ribosylated PARP substrate (also produced internally by Astra Zeneca) at final reaction concentration of 4.5 nM in assay buffer (50 mM Tris pH7.4, 0.1 mg/ml BSA, 3 mM EDTA, 0.4 mM EGTA, 1 mM DTT, 0.01% Tween 20, 50 mM KCl). The reaction was incubated at room temperature for 10 minutes and then 5 ul detection reagent was added. Detection Reagent consists of 42 nM MAb Anti-6HIS XL665 (CisBio: 61 HISXLB) and 2.25 nM Streptavidin Europium Cryptate (CisBio: 610SAKLB), both at 3× working stock concentrations (final concentrations of 14 nM and 0.75 nM respectively), in a detection buffer of 50 mM Tris pH7.4, BSA at 0.1 mg/ml and KF at 100 mM. Following incubation at room temperature for 60 minutes in the dark, TR-FRET signal was measured at Ex 340 and Em 665 and Em 620. A ratio was calculated as Em665/EM620x104 for each well and used to calculate percent inhibition for test compounds.
Background: In TR-FRET formats the signal depends on donor and acceptor labels being close together.

Chain of Human Full Length PARG (Q86W56 whole entry): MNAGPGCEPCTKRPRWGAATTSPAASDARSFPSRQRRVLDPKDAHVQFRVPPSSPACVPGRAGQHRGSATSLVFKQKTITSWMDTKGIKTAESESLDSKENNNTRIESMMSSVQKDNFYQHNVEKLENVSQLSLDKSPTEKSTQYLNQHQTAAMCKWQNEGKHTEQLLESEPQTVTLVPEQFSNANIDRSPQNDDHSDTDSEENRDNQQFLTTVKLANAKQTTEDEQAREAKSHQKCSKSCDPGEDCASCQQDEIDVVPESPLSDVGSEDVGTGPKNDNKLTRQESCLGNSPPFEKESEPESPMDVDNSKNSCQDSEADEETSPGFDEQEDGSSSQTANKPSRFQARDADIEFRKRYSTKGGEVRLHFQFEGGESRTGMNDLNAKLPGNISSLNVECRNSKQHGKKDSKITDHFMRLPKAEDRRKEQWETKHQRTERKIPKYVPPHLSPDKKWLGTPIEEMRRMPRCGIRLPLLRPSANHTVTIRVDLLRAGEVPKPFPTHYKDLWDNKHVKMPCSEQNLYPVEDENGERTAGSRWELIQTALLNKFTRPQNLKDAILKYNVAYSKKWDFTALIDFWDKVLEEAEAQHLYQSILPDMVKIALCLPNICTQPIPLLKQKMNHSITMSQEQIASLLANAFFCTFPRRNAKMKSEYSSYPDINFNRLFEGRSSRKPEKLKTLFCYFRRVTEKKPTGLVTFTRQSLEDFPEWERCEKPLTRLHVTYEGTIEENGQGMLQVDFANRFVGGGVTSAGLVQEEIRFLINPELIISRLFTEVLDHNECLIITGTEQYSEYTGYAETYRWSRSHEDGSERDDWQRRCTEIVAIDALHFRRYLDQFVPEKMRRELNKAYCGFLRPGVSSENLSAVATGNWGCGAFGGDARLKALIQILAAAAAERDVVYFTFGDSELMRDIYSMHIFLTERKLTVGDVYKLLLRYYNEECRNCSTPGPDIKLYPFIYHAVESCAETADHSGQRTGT

Turning to `Cn1c(=O)n(-c2nnc(N)s2)c2cc(S(=O)(=O)NC3(C)CC3)ccc21` [Example 81, 3-(5-Amino-1,3,4-thiadiazol-2-yl)-1-methyl-N-(1-methylcyclopropyl)-2-oxo-benzimidazole-5-sulfonamide], the EC50 turned out to be 1.55 µM.
On to `Cc1nsc(-n2c(=O)n(C)c3ccc(S(=O)(=O)NC4(CF)CC4)cc32)n1` [Example 177], for which the EC50 turned out to be 12.2 µM.
